This is an account of results in US20230285374A1, “THERAPEUTIC METHODS USING VADADUSTAT” (Akebia Therapeutics, Inc., priority 2019, published 2023).

In series [1] the test system is adult patients with NDD-CKD and anemia, not previously treated with an ESA. Kind of series: Phase 3 ESA-untreated NDD-CKD (Correction) trial, vadadustat vs darbepoetin alfa. In kind it is in vivo, human. To be noted: Correction study. How it is done: Two global, Phase 3, randomized, open-label, active-controlled, sponsor-blind clinical trials were conducted to evaluate safety and efficacy of vadadustat (Compound 1) vs the ESA darbepoetin alfa in adult patients with NDD-CKD and anemia. Patients recruited into the ESA-untreated NDD-CKD trial (N=1761) had hemoglobin <10 g/dL and were not previously being treated with an ESA. Patients recruited into the ESA-treated NDD-CKD trial (N=1750) had hemoglobin ranges of 8-11 g/dL (US) or 9-12 g/dL (non-US) and were actively treated with an ESA for anemia associated with CKD. Trial periods in both trials included 1) correction/conversion (weeks 0-23); 2) maintenance (weeks 24-52); 3) long-term treatment (week 53 to end of treatment); and 4) safety follow-up (end-of-treatment to 4 weeks later). The primary safety endpoint was time to first adjudicated major adverse cardiovascular event, defined as all-cause mortality, non-fatal myocardial infarction or non-fatal stroke pooled across both trials. The primary efficacy endpoint in each trial was mean change in hemoglobin from baseline to primary evaluation period (weeks 24-36) comparing vadadustat vs darbepoetin alfa treatment arms. Demographics and baseline characteristics were similar among patients in both trials, and typical for a large proportion of the NDD-CKD population. These trials helped define the safety and efficacy of vadadustat, an oral hypoxia-inducible factor prolyl hydroxylase inhibitor for management of anemia associated with NDD-CKD.
Two randomized, Phase 3, open-label, active-controlled clinical trials were conducted to evaluate the safety and efficacy of oral vadadustat versus injectable darbepoetin alfa: Correction (previously ESA-untreated) and Conversion (previously ESA-treated). Target enrollment for each was approximately 1850 patients recruited at approximately 390 and 480 sites in North America, Latin America, Europe, and the Asia Pacific for the ESA-untreated NDD-CKD trial and the ESA-treated NDD-CKD trial, respectively.
Trial Populations. Each trial recruited adults (>18 years of age) with NDD-CKD (estimated glomerular filtration rate 60 mL/min/1.73 m^2). […] In addition to the hemoglobin entry criteria, all patients were required to have serum ferritin ≥100 ng/mL and transferrin saturation 20% at screening in order to be randomized. In the ESA-untreated NDD-CKD trial, ESA use was permitted during screening, as per standard of care; however, patients were excluded if they received any ESA within 8 weeks of randomization. In the ESA-treated NDD-CKD trial, patients were actively maintained on ESA therapy, with at least one dose received within 6 weeks before or during screening. […]

For series [2], the system named is subjects receiving hemodialysis, previously maintained on epoetin alfa. The series is described as follows: Open-label Phase 2 trial in subjects receiving hemodialysis previously maintained on epoetin alfa.
Experimental: The primary endpoint was mean hemoglobin (Hb) change from pre-baseline average to midtrial (Weeks 7-8) and end-of trial (Weeks 15-16) and was analyzed using available data (no imputation).

As for `O=C(O)CNC(=O)c1ncc(-c2cccc(Cl)c2)cc1O` [Compound 1, Vadadustat], the “mean (SD) Hb level” value in series [1] (week 24 to week 36) is 10.39 (0.99) g/dL. Further, the “mean (SD) Hb level” value in series [1] (week 40 to week 52) is 10.48 (1.05) g/dL. Moreover, the “least square mean difference in Hb (vadadustat vs darbepoetin alfa)” value in series [1] (weeks 24 to 36, non-inferiority margin −0.75 g/dL) came out at 0.05 g/dL. Moreover, in series [1] (weeks 40 to 52), the “least square mean difference in Hb (vadadustat vs darbepoetin alfa)” value worked out at 0.04 g/dL. In addition, the “subjects with an Hb excursion>13 g/dL” value in series [2] (all cohorts) is on record as “one”. The “mean change in Hb from pre-baseline average” value in series [2] (all dose cohorts (300 mg QD, 450 mg QD, 450 mg TIW), Weeks 7-8 and 15-16) was “no statistically significant mean change”. Further, in series [2] (human, in vivo), the “serious AEs attributed to study drug” value is “No serious AEs”. Also, in series [2] (overall), the diarrhea is 10.6%, the nausea turned out to be 11.7%, the “subjects who experienced an adverse event (AE)” value was found to be 83% and the vomiting worked out at 9.6%.
